Test results from patent publication US20120232070A1, “Use of Indole Derivatives as Nurr-1 Activators for the Application Thereof as a Medicament for the Treatment of Parkinson's Disease” (Laboratoires Fournier SA, priority 2009, published 2012).

What was measured:
[1] = target: hNurr1_RXRγFL (NURR1/RXRγ heterodimer) (Homo sapiens, UniProt P43354+P48443); assay: Transactivation assay in Cos-7 cells, NURR-1-Gal4 / RXRγ, luciferase reporter; type: cell-based; conditions: for Emax: COS-7, read-out: hNurr1_RXRγFL Eff (%), efficacy in % relative to the reference XCT0135908 at 2·10^−5 M (=100%); for EC50: Cos-7 cells, overnight incubation
Chain of hNurr1_RXRγFL (NURR1/RXRγ heterodimer) (P43354 328-598): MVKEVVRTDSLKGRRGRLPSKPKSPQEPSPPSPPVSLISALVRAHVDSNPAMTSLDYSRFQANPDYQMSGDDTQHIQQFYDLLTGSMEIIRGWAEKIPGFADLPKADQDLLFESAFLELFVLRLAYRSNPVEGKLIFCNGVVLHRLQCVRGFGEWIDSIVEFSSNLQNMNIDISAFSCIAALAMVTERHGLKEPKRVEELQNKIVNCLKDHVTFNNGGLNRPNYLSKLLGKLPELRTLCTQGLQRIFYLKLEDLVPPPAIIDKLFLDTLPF
Chain of hNurr1_RXRγFL (NURR1/RXRγ heterodimer) (P48443 whole entry, the tested form may be a part): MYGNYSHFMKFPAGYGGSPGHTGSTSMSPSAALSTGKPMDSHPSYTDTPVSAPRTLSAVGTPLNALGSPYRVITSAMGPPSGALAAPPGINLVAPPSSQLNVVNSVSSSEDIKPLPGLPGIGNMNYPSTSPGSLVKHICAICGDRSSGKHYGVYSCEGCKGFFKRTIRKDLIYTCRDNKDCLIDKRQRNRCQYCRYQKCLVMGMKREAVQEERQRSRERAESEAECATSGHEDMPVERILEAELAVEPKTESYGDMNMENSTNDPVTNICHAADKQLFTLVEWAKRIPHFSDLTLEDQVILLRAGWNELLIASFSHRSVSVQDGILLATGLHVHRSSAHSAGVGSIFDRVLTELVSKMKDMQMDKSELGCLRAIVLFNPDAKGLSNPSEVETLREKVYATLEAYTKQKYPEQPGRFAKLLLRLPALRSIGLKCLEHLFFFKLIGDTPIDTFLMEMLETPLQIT
How it was run: (§1)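 Cos-7 cells co-transfected with human NURR-1-Gal4 chimera, human RXRα or RXRγ, and 5Gal4pGL3-TK-Luc reporter; compounds added at 10^−4 to 3·10^−10 M final, overnight incubation, luciferase read. Induction over each heterodimer's baseline expressed as % of reference RXR agonist XCT0135908 (2·10^−5 M) taken as 100%.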

[2] = target: hNurr1_RXRαFL (NURR1/RXRα heterodimer) (Homo sapiens, UniProt P19793+P43354); assay: Transactivation assay in Cos-7 cells, NURR-1-Gal4 / RXRα, luciferase reporter; type: cell-based; conditions: for Emax: COS-7, read-out: hNurr1_RXRαFL Eff (%), efficacy in % relative to the reference XCT0135908 at 2·10^−5 M (=100%); for EC50: Cos-7 cells, overnight incubation
Chain of hNurr1_RXRαFL (NURR1/RXRα heterodimer) (P19793 whole entry, the tested form may be a part): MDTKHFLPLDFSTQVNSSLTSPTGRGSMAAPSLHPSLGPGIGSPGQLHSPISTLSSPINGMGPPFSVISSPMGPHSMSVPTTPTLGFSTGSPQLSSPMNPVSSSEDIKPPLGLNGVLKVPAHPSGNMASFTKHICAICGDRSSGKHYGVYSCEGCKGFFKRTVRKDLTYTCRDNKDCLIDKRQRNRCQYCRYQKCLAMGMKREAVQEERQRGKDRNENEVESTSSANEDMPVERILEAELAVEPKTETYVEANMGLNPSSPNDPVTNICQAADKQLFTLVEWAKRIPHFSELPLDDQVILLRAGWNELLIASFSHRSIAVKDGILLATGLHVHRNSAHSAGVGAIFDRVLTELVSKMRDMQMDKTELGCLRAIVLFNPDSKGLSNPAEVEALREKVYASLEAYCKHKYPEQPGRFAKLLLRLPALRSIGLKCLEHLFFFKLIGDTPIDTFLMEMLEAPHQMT
Chain of hNurr1_RXRαFL (NURR1/RXRα heterodimer) (P43354 328-598): as the sequence (P43354 328-598) above
How it was run: as §1

[3] = efficacy in % relative to the reference XCT0135908 at 2·10^−5 M (=100%)

| SMILES | Emax [1] | EC50 [1] | Emax [2] | EC50 [2] | hNurr1_RXRγFL Eff (%) [1, 3] | hNurr1_RXRαFL Eff (%) [2, 3] |
| --- | --- | --- | --- | --- | --- | --- |
| O=C(O)c1ccc(Cc2cc3cc(C(F)(F)F)ccc3n2S(=O)(=O)c2ccc(OC(F)F)c(Cl)c2)cc1 [Example 124, 4-[[1-[3-chloro-4-difluoromethoxy-phenylsulfonyl]-5-(trifluoromethyl)-1H-indol-2-yl]methyl]benzoic acid] | 44% | 697 nM | 59% | 349 nM |  |  |
| CC(C)(C)c1cccc(S(=O)(=O)n2c(Cc3ccc(C(=O)O)cc3)c(F)c3cc(C(F)(F)F)ccc32)c1 [Example 149, 4-[[1-[[3-(1,1-dimethylethyl)phenyl]sulfonyl]-3-fluoro-5-(trifluoromethyl)-1H-indol-2-yl]methyl]-benzoic acid] | 80% | 225 nM | 98% | 94 nM |  |  |
| O=C(O)c1ccc(Cc2cc3cc(C(F)(F)F)ccc3n2S(=O)(=O)c2cccc(C3CC3)c2)cc1 [Example 59, 4-[1-(3-cyclopropyl-benzenesulfonyl)-5-trifluoromethyl-1H-indol-2-ylmethyl]-benzoic acid] | 31% | 297 nM | 70% | 274 nM |  |  |
| O=C(O)c1ccc(Cc2cc3cc(Cl)ccc3n2S(=O)(=O)c2ccc(OC(F)(F)F)cc2)cc1 [Example 156, 4-[[1-[4-trifluoromethoxy-phenylsulfonyl]-5-(chloro)-1H-indol-2-yl]methyl]benzoic acid] | 43% | 1300 nM | 69% | 638 nM |  |  |
| Cc1c(Cc2nc(C(=O)O)cs2)n(S(=O)(=O)c2cccc(C(C)(C)C)c2)c2ccc(C(F)(F)F)cc12 [Example 86, 2-[[1-[[3-(1,1-dimethylethyl)-phenyl]sulfonyl]-3-methyl-5-(trifluoro-methyl)-1H-indol-2-yl]methyl]-thiazole-4-carboxylic acid] | 34% | 1480 nM | 56% | 490 nM |  |  |
| CC(C)c1cccc(S(=O)(=O)n2c(Cc3ccc(C(=O)O)cc3)cc3cc(Cl)ccc32)c1 [Example 51, 4-[[5-chloro-1-[[3-(1-methylethyl)phenyl]sulfonyl]-1H-indol-2-yl]-methyl]benzoic acid] | 69% | 1130 nM | 74% | 801 nM |  |  |
| CCc1ccc(S(=O)(=O)n2c(Cc3ccc(C(=O)O)cc3)cc3cc(Cl)ccc32)cc1 [Example 159, 4-[[1-[4-ethyl-phenylsulfonyl]-5-(chloro)-1H-indol-2-yl]methyl]benzoic acid] | 45% | 785 nM | 66% | 319 nM |  |  |
| O=C(O)c1ccc(Cc2cc3cc(Cl)ccc3n2S(=O)(=O)c2ccc(-c3ccccc3)cc2)cc1 [Example 151, 4-[[1-[biphenyl-4-sulfonyl]-5-(chloro)-1H-indol-2-yl]methyl]benzoic acid] | 17% | > 10000 nM | 80% | 427 nM |  |  |
| CC(C)COc1ccc(S(=O)(=O)n2c(Cc3ccc(C(=O)O)cc3)cc3cc(C(F)(F)F)ccc32)cc1 [Example 127, 4-[[1-[4-isobutoxy-phenylsulfonyl]-5-(trifluoromethyl)-1H-indol-2-yl]methyl]benzoic acid] | 45% | 575 nM | 48% | 263 nM |  |  |
| Cc1cc(C)n(-c2ccc(S(=O)(=O)n3c(Cc4ccc(C(=O)O)cc4)cc4cc(C(F)(F)F)ccc43)cc2)n1 [Example 131, 4-[[1-[4-(3,5-dimethyl-pyrazol-1-yl)-phenylsulfonyl]-5-(trifluoromethyl)-1H-indol-2-yl]methyl]benzoic acid] | 21% | 1480 nM | 30% | 603 nM |  |  |
| Cc1ccc2c(c1)cc(Cc1ccc(C(=O)O)cc1)n2S(=O)(=O)c1cccc(C(C)(C)C)c1 [Example 118, 4-[[1-[[3-(1,1-dimethylethyl)phenyl]sulfonyl]-5-(methyl)-1H-indol-2-yl]methyl]benzoic acid] | 65% | 473 nM | 75% | 279 nM |  |  |
| COC(=O)c1ccc(Cc2cc3cc(C(F)(F)F)ccc3n2S(=O)(=O)c2cccc(C(C)(C)C)c2)s1 [Example 190, 5-[[1-[[3-(1,1-dimethylethyl)-phenyl]sulfonyl]-5-trifluoromethyl-1H-indol-2-yl]-methyl]-thiophene-2-carboxylic acid, methyl ester] | 107% | 13 nM | 97% | 0.2 nM |  |  |
| COC(=O)c1ccc(Cc2c(F)c3cc(C(F)(F)F)ccc3n2S(=O)(=O)c2cccc(C(C)(C)C)c2)cc1 [Example 148, 4-[[1-[[3-(1,1-dimethylethyl)phenyl]sulfonyl]-3-fluoro-5-(trifluoromethyl)-1H-indol-2-yl]methyl]-benzoic acid, methyl ester] | 101% | 121 nM | 119% | 62 nM |  |  |
| CC(C)c1cccc(S(=O)(=O)n2c(Cc3ccc(C(=O)O)cc3)cc3cc(N4CCCC4)ccc32)c1 [Example 116, 4-[[1-[[3-(1-methylethyl)phenyl]sulfonyl]-5-(pyrrolidin)-1H-indol-2-yl]methyl]benzoic acid] |  | 1440 nM |  | 871 nM | 50% | 74% |
| O=C(O)c1ccc(Cc2cc3cc(Cl)ccc3n2S(=O)(=O)c2ccc(-c3cccc(F)c3)cc2)cc1 [Example 172, 4-[[1-[3′-fluoro-biphenyl-4-sulfonyl]-5-(chloro)-1H-indol-2-yl]methyl]benzoic acid] | 47% | 567 nM | 82% | 117 nM |  |  |
| O=C(O)c1ccc(Cc2cc3cc(Cl)ccc3n2S(=O)(=O)c2cccc(Cl)c2)cc1 [Example 164, 4-[[1-[3-chloro-phenylsulfonyl]-5-(chloro)-1H-indol-2-yl]methyl]benzoic acid] | 47% | 851 nM | 53% | 753 nM |  |  |
| COC(=O)c1ccc(Cc2cc3cc(C(C)(C)C)ccc3n2S(=O)(=O)c2cccc(C(C)(C)C)c2)cc1 [Example 108, 4-[[1-[[3-(1,1-dimethylethyl)phenyl]sulfonyl]-5-(tert-butyl)-1H-indol-2-yl]methyl]benzoic acid, methyl ester] | 77% | 646 nM | 110% | 157 nM |  |  |
| O=C(O)c1ccc(Cc2cc3cc(C(F)(F)F)ccc3n2S(=O)(=O)c2cccc(OC(F)(F)F)c2)cc1 [Example 145, 4-[[1-[3-trifluoromethoxy-phenylsulfonyl]-5-(trifluoromethyl)-1H-indol-2-yl]methyl]benzoic acid] | 21% | 638 nM | 44% | 359 nM |  |  |
| CCCc1ccc(S(=O)(=O)n2c(Cc3ccc(C(=O)O)cc3)cc3cc(C(F)(F)F)ccc32)cc1 [Example 139, 4-[[1-[4-propyl-phenylsulfonyl]-5-(trifluoromethyl)-1H-indol-2-yl]methyl]benzoic acid] | 43% | 344 nM | 46% | 202 nM |  |  |
| CC(C)c1ccc(S(=O)(=O)n2c(Cc3ccc(C(=O)O)cc3)cc3cc(C(F)(F)F)ccc32)cc1 [Example 43, 4-[[1-[[4-(1-methylethyl)phenyl]sulfonyl]-5-(trifluoromethyl)-1H-indol-2-yl]methyl]benzoic acid] | 79% | 616 nM | 73% | 291 nM |  |  |
| CC(C)(C)c1cccc(S(=O)(=O)n2c(Cc3csc(C(=O)O)c3)cc3cc(C(F)(F)F)ccc32)c1 [Example 70, 4-[[1-[[3-(1,1-dimethylethyl)-phenyl]sulfonyl]-5-trifluoromethyl-1H-indol-2-yl]methyl]-thiophene-2-carboxylic acid] | 91% | 8 nM | 94% | 5 nM |  |  |
| C=C(c1ccc(C(=O)O)cc1)c1cc2cc(Cl)ccc2n1S(=O)(=O)c1ccc(C(C)C)cc1 [Example 102, 4-[1-[1[[4-(1-methylethyl)phenyl]sulfonyl]-5-(chloro)-1H-indol-2-yl]-1-ethenyl]-benzoic acid] | 27% | 676 nM | 49% | 363 nM |  |  |
| O=C(O)c1ccc(Cc2cc3cc(C(F)(F)F)ccc3n2S(=O)(=O)c2ccc(Cl)c(OC(F)F)c2)cc1 [Example 147, 4-[[1-[4-chloro-3-difluoromethoxy-phenylsulfonyl]-5-(trifluoromethyl)-1H-indol-2-yl]methyl]benzoic acid] | 30% | 1100 nM | 49% | 825 nM |  |  |
| CC(C)(C)c1cccc(S(=O)(=O)n2c(C(=O)c3ccc(C(=O)O)cc3)cc3cc(C(F)(F)F)ccc32)c1 [Example 219] | 32% | 3200 nM | 57% | 1130 nM |  |  |
| O=C(O)c1ccc(Cc2cc3cc(Cl)ccc3n2S(=O)(=O)c2ccc(Cl)cc2)cc1 [Example 160, 4-[[1-[4-chloro-phenylsulfonyl]-5-(chloro)-1H-indol-2-yl]methyl]benzoic acid] | 55% | 1390 nM | 59% | 462 nM |  |  |
| O=C(O)c1ccc(Cc2cc3cc(C(F)(F)F)ccc3n2S(=O)(=O)c2ccc(F)cc2)cc1 [Example 137, 4-[[1-[4-fluoro-phenylsulfonyl]-5-(trifluoromethyl)-1H-indol-2-yl]methyl]benzoic acid] | 18% | 730 nM | 37% | 529 nM |  |  |
